Consider one compound from US10633375B2, “Oxopicolinamide derivative, preparation method therefor and pharmaceutical use thereof” (Jiangsu Hengrui Medicine Co., Ltd., priority 2016, dated 2020).

One series concerns human blood. Nature of the series: In vitro anticoagulant effect on human blood (APTT, CT2). As to conditions: Table 2; concentration corresponding to 2 times the APTT of the blank control, human plasma. In a few lines:
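Citrated human plasma (3.8% sodium citrate, 1:9) spiked with compound serially diluted in 100% DMSO (0.3–3000 μM dilution series; DMSO blank) and APTT measured on a coagulation analyser. CT2 is the compound concentration doubling blank APTT, from curve fitting.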

The nature of series [1]: Pharmacokinetics assay in rats after intragastrical administration. To be noted: both sexes, Sprague-Dawley, rat, plasma, po, SD rats, intragastric, 2 mg/kg. It counts as in vivo, Sprague-Dawley (SD) rats.
Series [2] is described as follows: Determination of APTT value in cynomolgus monkeys. It counts as in vivo. As to conditions: cynomolgus monkey, individual animals. The procedure: (§1) Test Example 4: Determination of APTT Value and Pharmacokinetic Assay in Cynomolgus Monkey
(§2) Six male cynomolgus monkeys (101, 102, 103, 201, 202 and 203) were purchased from Guangxi Xiongsen Primate Experimental Animal Breeding Development Co., Ltd.
(§3) Compounds of Example 5 and Example 108.
(§4) 4. Preparation of the Test Compounds
(§5) A certain amount of the test compound was weighed, and added with 2% by volume of DMSO, 78% by volume of PEG400 and 20% CMC-Na (0.5%) to prepare a 3.0 mg/mL colorless, clear and transparent solution.
(§6) After an overnight fast, cynomolgus monkeys were intragastrically administered at a dose of 15.0 mg/kg and an administration volume of 5.0 mL/kg.
6. Test Protocol for Determination of APTT Value in Cynomolgus Monkeys
6.1 Experimental Materials
Reagents: APTT reagent (Activated partial thromboplastin time assay kit, SIEMENS, Art. No. B4218-1), PEG-400 and CMC-Na;
Instrument: Coagulation instrument (SYSMEX, CA-500).
6.2 Collection and Processing of APTT Plasma Sample
Blood was taken before administration and at 1 hour, 2 hours, 4 hours, 8 hours and 12 hours after administration. About 1.8 mL of blood was taken through femoral vein puncture in each animal for each time. Anticoagulated sodium citrate was added. After the blood sample was collected, it was placed in a pre-labeled centrifuge tube, and the plasma was separated by centrifugation (centrifugation conditions: 3500 rpm, 10 minutes, 2-8° C.). The plasma was stored in a −80° C. refrigerator for APTT assay.
6.3 APTT Assay Results in Cynomolgus Monkeys

A short description of series [3]: Pharmacokinetics assay in cynomolgus monkeys. It is filed as in vivo. To be noted: male, cynomolgus monkey, plasma, po, intragastric, 15 mg/kg.
Text: as §1
Cynomolgus monkeys were used as test animals. […] The pharmacokinetic behavior of the compounds of the present invention was studied and evaluated in the cynomolgus monkeys.
as §2, §3, §4, §5, §6
7. Test Protocol of Pharmacokinetics Assay in Cynomolgus Monkeys
1.0 mL of blood was taken from the forelimb vein before administration and at 0.25, 0.5, 1, 2, 4, 6, 8, 12 and 24 hours after administration. The samples were stored in heparin anticoagulation tubes, and centrifuged for 10 minutes at 3500 rpm to separate the blood plasma. The plasma samples were stored at −80° C. The […] were fed 2 hours after administration.
The content of the test compound in the plasma of cynomolgus monkeys after intragastric administration of different concentrations of the drug was determined: 25 μL of cynomolgus monkey plasma at each time after administration was taken and added with 30 μL (100 ng/mL) of the internal standard solution of camptothecin and 225 μL of acetonitrile, shaken vertically for 5 minutes, and centrifuged for 10 minutes (4000 rpm). 1.0 μL of the supernatant was taken from the plasma samples for LC/MS/MS analysis.
7.2. Results of Pharmacokinetic Parameters in Cynomolgus Monkeys
Pharmacokinetic parameters of the compounds of the present invention in cynomolgus monkeys are shown below.

The mark [4] stands for this setting: read-out: Apparent Distribution Volume Vz/F.
Setting [5] is: read-out: Half-Life T½ (converted).
Setting [6] is: read-out: Mean Residence Time MRT.
[7] abbreviates: read-out: Plasma Concentration Cmax.

Several values for one entry are separate records, joined by “and”; a condition that tells them apart may be missing. Equal values may be shown once.

As for `CCC(=O)c1ccc(Cl)cc1-c1cc(=O)n([C@@H](CCOC(C)(C)C)C(=O)Nc2ccc(C(=O)O)cc2)cc1OC` [Example 108, (S)-4-(4-(tert-butoxy)-2-(4-(5-chloro-2-propionylphenyl)-5-methoxy-2-oxopyridin-1(2H)-yl)butanamido)benzoic acid], in the series with human blood, the “CT2, concentration doubling APTT” value was determined as 1.4 µM. Besides, the results for the Vd/F in series [1] (setting [4]) and in series [3] (setting [4]) were 44.4 ± 3.45 L/kg and 59.1 ± 26.2 L/kg, respectively. In addition, the figures for the AUC in series [1] (read-out: Area Under Curve AUC) and in series [3] (read-out: Area Under Curve AUC) were 452 ± 44 ng·h/mL and 2700 ± 1340 ng·h/mL, respectively. Also, the CL/F is 74.3 ± 6.9 mL/min/kg in series [1] (read-out: Clearance CLz/F) and 120 ± 83 mL/min/kg in series [3] (read-out: Clearance CLz/F). Also, the half-life – broadly, the time in which the quantity being followed falls by half – in series [1] (setting [5]) was 6.98 ± 1.22 h; in series [3] (setting [5]), 6.32 ± 1.47 h. Further, the MRT (commonly a mean duration of stay, worked out from the concentration-time curve) in series [1] (setting [6]) is 7.33 ± 0.48 h; in series [3] (setting [6]) it was 8.81 ± 3.65 h. For the same compound, the values for the Cmax in series [1] (setting [7]) and in series [3] (setting [7]) were 105 ± 23 ng/mL and 295 ± 102 ng/mL, respectively. For the same compound, the “APTT (sec) 1 hour” value in series [2] (15.0 mg/kg intragastric, 1 hour after administration) is 26.3 s and 31.2 s and 31.9 s. Also, the “APTT (sec) 2 hours” value in series [2] (15.0 mg/kg intragastric, 2 hours after administration) is 27.5 s and 27.1 s and 28.5 s. The “APTT (sec) 4 hours” value in series [2] (15.0 mg/kg intragastric, 4 hours after administration) is 28.7 s and 24.1 s and 28.6 s. In addition, the “APTT (sec) 8 hours” value in series [2] (15.0 mg/kg intragastric, 8 hours after administration) is 26.9 s and 20.3 s and 26.3 s. Moreover, in series [2] (15.0 mg/kg intragastric, 12 hours after administration), the “APTT (sec) 12 hours” value is 27.3 s and 19 s and 21.5 s. For the same compound, in series [2] (baseline before 15.0 mg/kg intragastric dose), the “APTT (sec) Before Administration” value is 17.5 s and 18.5 s and 17.6 s.
